We go through eleven compounds from patent US8486924B2, “Taxane delivery system” (Celator Pharmaceuticals, Inc., priority 2007, dated 2013).

Read-outs that look alike come from different tables or passages of the source.

The test system of data set [1] is HT29 human colon carcinoma cells. The conditions noted are these: Q4Dx6, nanoparticle formulations; for therapeutic activity in HT29 model: 34 μmol/kg dose; for treatment induced delay in reaching a mean tumor size of 500 mm^3: HT29 model, 36 μmol/kg. The method, then:
Female athymic nude mice (7-8 weeks old) were inoculated subcutaneously with 100 μl HT29 human colon carcinoma cells (2×10^6 cells) using a 26 gauge needle. Mice were randomly grouped (n=6/group) with a mean tumor size between 80 and 120 mg prior to first treatment. […] Subsequent injections were made according to the designated schedule. Tumor length and width measurements, body weight and in life observations were recorded 2-3 times per week. Tumor weight was calculated according to the formula (L×W^2)/2.
The relative efficacies of nanoparticle formulations of 1, 2, 4, 5, 6 and 7 were determined in the HT29 model using a 36 μmol/kg dose on a Q4Dx6 schedule (FIG. 3). Saline was used as a negative control.
The activity of 7 in POPC/2.5kPS3k nanoparticle formulations relative to paclitaxel was determined by comparing the efficacy of doses ranging from 0.25 to 3 mole equivalents of paclitaxel (FIG. 4) in the HT29 tumor model. Taxol® dosed at 23 μmol/kg on a Q2Dx5 schedule was used as a positive control.
The tumor growth data was analyzed by two methods to determine what dose of 7 would be equivalent to the Taxol® positive control.

The test system of data set [2] is MCF-7 human tumor cell line. The conditions noted are these: read-out: IC50 values MCF-7; prodrug/POPC/2kPS3k (1:1:2) formulations; 72 hours; MTT; ± SD.
For data set [3], the system named is A2780 human tumor cell line. The data set can be described thus: MTT growth inhibition, A2780 cells, 72 hours. The conditions noted are these: read-out: IC50 values A2780, prodrug/POPC/2kPS3k (1:1:2) formulations, ± SD.
Data set [4] relates to MCF-7 breast carcinoma cell line. The note with it: literature reference 7; cited from earlier work.
For data set [5] the following is noted: volume weighted average. The method, then: The prodrug, co-lipid and stabilizer polymers (typically on a 1:1:2 w/w basis) were dissolved in ethanol/THF (4:1) at a concentration of 40 mg/ml. The solvent was rapidly diluted with water using a four port CVIJ mixer^13, 14 with flow rates set at […] (solvent/water/water/water). Flow rates were controlled using Harvard Apparatus PHD2000 syringe pumps. The resultant solution was then dialyzed against water to remove residual solvent. […] When higher concentrations were required the dialyzed solution was diluted with equi-volumes of 600 mM sucrose and then concentrated using a 100 kD, 0.5 mm lumen, 60 cm path length MidGee hoop cartridge (GE Healthcare Life Sciences, Piscataway, N.J.) with a peristaltic pump. Particle size was determined using a Malvern Zetasizer Nano-ZS particle sizer and reported as volume weighted data.
Formulations were composed of a prodrug, a co-lipid and an amphipathic stabilizer in a weight ratio of 1:1:2, respectively at a concentration of 40 mg per mL of solvent. […] Poly(ethylene glycol)-b-polystyrene (2kPS3k or 2.5kPS3k) was used as the amphipathic stabilizer. Other stabilizers may also be used.

The conditions of data set [6]: vortexing 30 seconds. The method, then: The physical stability of formulations was investigated by examining changes in particle size after vortexing prodrug/co-lipid/2.5kPS3k (1:1:2) nanoparticles in water, 150 mM saline or 300 mM sucrose (Table 1). […] The increase in particle size was monitored by using dynamic light scattering to measure the Z average (the intensity weighted mean size of the particle distribution) value for samples before and after vigorous vortexing. The change in the Zave value was used as surrogate readout for the formation of aggregates or precipitates resulting from mechanical instability, where a higher value for ΔZave indicated a higher level of aggregation or precipitation (Table 1).

For data set [7] the following is noted: unbuffered processed plasma sample.
Source text: Methanol:acetonitrile 1:4 (v:v) was effective in near complete precipitation of plasma proteins and liberation of the prodrug from the nanoparticle.
For data set [8] the following is noted: mouse, in vivo.
Procedure: Athymic nude mice (n=3/timepoint) were injected iv with test samples (10 μl/g body weight, to a maximum of 250 μl). Blood was collected at the designated time point by cardiac puncture and placed into EDTA coated microtainer tubes (BD Biosciences). The tubes were centrifuged at 2800 rpm for 10 minutes. Plasma was recovered and 50 μl aliquots analyzed by HPLC for drug content. Samples containing ^3H—CHE (50 μl) were diluted with PicoFluor40™ scintillation fluid (Packard) and counted on a Beckman-Coulter LS 6500 Multipurpose scintillation counter. The total drug (counts) per mouse in the blood compartment was calculated assuming a plasma volume of 0.04125 mL per gram of body weight.
Elimination studies tracking both the prodrug and the particle were conducted to obtain a more accurate description of the partitioning behavior of the prodrugs in vivo (FIG. 1). Prodrug elimination was followed by HPLC, while particle elimination rates were determined by labeling nanoparticles with tritiated cholesterylhexadecyl ether (3H—CHE).
Formulations comprised of 1/VES/2kPS3k (1:1:2) and 2/VES/2kPS3k (1:1:2) were labeled with trace amounts of ^3H—CHE and plasma levels of both the label and prodrug were monitored in Foxn1^nu mice (FIG. 1, Panel A).
Effect of prodrug partitioning on plasma drug elimination was determined. The prodrug panel was screened using prodrug/POPC/2kPS3k (1:1:2) nanoparticles in Foxn1^nu mice to determine elimination rates for the different prodrug conjugates (FIG. 2). […] Conjugates were formulated at a concentration of 0.7 mg/mL.
In order to estimate the partitioning half-life for each prodrug, it was assumed that 1 tracked the particle elimination rate based on the results discussed above. The elimination of all other prodrugs were then fitted to four parameter double exponential decay curves and normalized against 1.
The mark [9] stands for this setting: prodrug/POPC/2.5kPS3k (1:1:2) nanoparticles in water.
[10] abbreviates: co-lipid POPC, prodrug/co-lipid/2.5kPS3k (1:1:2).

For the compound “2′-O-(4″-O-tocopherylsuccinoyl)-paclitaxel [Prodrug 1]”, the “therapeutic activity in HT29 model” value in data set [1] is “no evidence of any therapeutic activity”. The figures for the IC50 in data set [2] and in data set [3] were 158 ± 72 nM and 192 nM, respectively.

Take `CCCCCCCCCCCCCCC(Br)C(=O)O[C@@H](C(=O)O[C@H]1C[C@@]2(O)[C@@H](OC(=O)c3ccccc3)[C@@H]3[C@]4(OC(C)=O)CO[C@@H]4C[C@H](O)[C@@]3(C)C(=O)[C@H](OC(C)=O)C(=C1C)C2(C)C)[C@@H](NC(=O)c1ccccc1)c1ccccc1` (stereo partly shown) [2′-(2″-bromohexadecanoyl)paclitaxel]: the IC50 in data set [4] was 70 nM.

As for `CCCCCCCCCCCCCCCC(=O)OC(C(=O)OC1CC2(O)C(OC(=O)c3ccccc3)C3C4(OC(C)=O)COC4CC(O)C3(C)C(=O)C(OC(C)=O)C(=C1C)C2(C)C)C(NC(=O)c1ccccc1)c1ccccc1` (stereo not shown) [2′-O-hexadecanoylpaclitaxel], in data set [4], the IC50 was 8600 nM.

As to `CC(=O)O[C@H]1C(=O)[C@@]2(C)[C@H]([C@H](OC(=O)c3ccccc3)[C@]3(O)C[C@H](OC(=O)[C@H](O)[C@@H](NC(=O)c4ccccc4)c4ccccc4)C(C)=C1C3(C)C)[C@]1(OC(C)=O)CO[C@@H]1C[C@@H]2O` [Paclitaxel], the IC50 in data set [4] is less than 1 nM.

Consider `CCCCCCCC/C=C\CCCCCCCCOC(=O)CCC(=O)O[C@@H](C(=O)O[C@H]1C[C@@]2(O)[C@@H](OC(=O)c3ccccc3)[C@@H]3[C@]4(OC(C)=O)CO[C@@H]4C[C@H](O)[C@@]3(C)C(=O)[C@H](OC(C)=O)C(=C1C)C2(C)C)[C@@H](NC(=O)c1ccccc1)c1ccccc1` [Prodrug 2, 2′-O-(4″-O-oleylsuccinoyl)-paclitaxel], for which the Diameter in data set [5] (setting [9]) stood at 26 nm. Also, in data set [6] (setting [10]), the “ΔZave 150 mM saline” value came to 43 nm, the “ΔZave 300 mM sucrose” value is listed as 10 nm and the ΔZave water came out at 20 nm. Also, the “therapeutic activity in HT29 model” value in data set [1] is given as “no evidence of any therapeutic activity”. Also, the “prodrug remaining after processing plasma samples” value in data set [7] (after 68 hours) was “approximately 25%”. In data set [2], the IC50 turned out to be 67 ± 5.9 nM. For the same compound, the “prodrug plasma clearance compared with 3H-CHE label” value in data set [8] (iv) was “cleared significantly faster”. The IC50 in data set [3] came out at 75.1 nM.

In the case of `CC(=O)OC1C(=O)C2(C)C(O)CC3OCC3(OC(C)=O)C2C(OC(=O)c2ccccc2)C2(O)CC(OC(=O)C(OC(=O)COCC(=O)Oc3c(C)c(C)c4c(c3C)CCC(C)(CCCC(C)CCCC(C)CCCC(C)C)O4)C(NC(=O)c3ccccc3)c3ccccc3)C(C)=C1C2(C)C` (stereo not shown) [Prodrug 3, 2′-O-(5″-O-tocopheryldiglycoloyl)-paclitaxel], the Diameter in data set [5] (setting [9]) came out at 24 nm. Besides, in data set [6] (setting [10]), the “ΔZave 150 mM saline” value was determined as 55 nm and the ΔZave water came out at 125 nm. Moreover, in data set [2], the IC50 was 13.4 ± 2.4 nM. Further, the partitioning half life result in data set [8] is “approximately 13 h”. Moreover, in data set [3], the IC50 was 25.3 nM.

In the case of `CCCCCCCC/C=C\CCCCCCCCOC(=O)COCC(=O)O[C@@H](C(=O)O[C@H]1C[C@@]2(O)[C@@H](OC(=O)c3ccccc3)[C@@H]3[C@]4(OC(C)=O)CO[C@@H]4C[C@H](O)[C@@]3(C)C(=O)[C@H](OC(C)=O)C(=C1C)C2(C)C)[C@@H](NC(=O)c1ccccc1)c1ccccc1` [Prodrug 4, 2′-O-(5″-O-oleyldiglycoloyl)-paclitaxel], the Diameter in data set [5] (setting [9]) came to 22 nm. In data set [6] (setting [10]), the “ΔZave 150 mM saline” value came out at 25 nm, the “ΔZave 300 mM sucrose” value came out at 5 nm and the ΔZave water is reported as 15 nm. Further, the “treatment induced delay in reaching a mean tumor size of 500 mm^3” value (shortened to “treatment induced delay”) in data set [1] turned out to be 3 days. In data set [2], the IC50 was found to be 15.9 ± 0.7 nM. Further, the IC50 in data set [3] stood at 28.4 nM.

As for `CCCCCCCCCCCCCCCCCCOC(=O)COCC(=O)O[C@@H](C(=O)O[C@H]1C[C@@]2(O)[C@@H](OC(=O)c3ccccc3)[C@@H]3[C@]4(OC(C)=O)CO[C@@H]4C[C@H](O)[C@@]3(C)C(=O)[C@H](OC(C)=O)C(=C1C)C2(C)C)[C@@H](NC(=O)c1ccccc1)c1ccccc1` [Prodrug 5, 2′-O-(5″-O-octadecyldiglycoloyl)-paclitaxel], the Diameter in data set [5] (no co-lipid, prodrug/2.5kPS3k nanoparticles in water) was 28 nm; in data set [5] (setting [9]), 21 nm; in data set [5] (prodrug/VES/2.5kPS3k (1:1:2) nanoparticles in water), 7 nm. In addition, the “ΔZave 150 mM saline” value was determined as 24 nm in data set [6] (setting [10]); 372 nm in data set [6] (co-lipid VES, 2.5kPS3k); 774 nm in data set [6] (no co-lipid, 2.5kPS3k). The “ΔZave 300 mM sucrose” value in data set [6] (setting [10]) turned out to be 7 nm; in data set [6] (co-lipid VES, 2.5kPS3k) it was 10 nm; in data set [6] (no co-lipid, 2.5kPS3k), 71 nm. Also, the ΔZave water in data set [6] (setting [10]) is 20 nm; in data set [6] (co-lipid VES, 2.5kPS3k), 3 nm; in data set [6] (no co-lipid, 2.5kPS3k), 109 nm. In data set [1], the “treatment induced delay” value came to 4 days. Besides, the IC50 in data set [2] is 1.1 ± 1.5 nM; in data set [3], 20.9 ± 10.9 nM. Besides, the partitioning half life in data set [8] was found to be 1.7 h.

Turning to `CCCCCCCCCCCCCCCCCCCCOC(=O)COCC(=O)O[C@@H](C(=O)O[C@H]1C[C@@]2(O)[C@@H](OC(=O)c3ccccc3)[C@@H]3[C@]4(OC(C)=O)CO[C@@H]4C[C@H](O)[C@@]3(C)C(=O)[C@H](OC(C)=O)C(=C1C)C2(C)C)[C@@H](NC(=O)c1ccccc1)c1ccccc1` [Prodrug 6, 2′-O-(5″-O-cosanyldiglycoloyl)-paclitaxel], the Diameter in data set [5] (setting [9]) stood at 23 nm. Moreover, in data set [6] (setting [10]), the “ΔZave 150 mM saline” value came to 26 nm, the “ΔZave 300 mM sucrose” value came to 36 nm and the ΔZave water turned out to be 21 nm. The “treatment induced delay” value in data set [1] turned out to be 15 days. In data set [7] (after 9 hours), the “hydrolysis of prodrug after processing plasma samples” value is given as “completely hydrolyzed”. Besides, the IC50 in data set [2] amounted to 16.6 ± 4.5 nM. The compound also gave a partitioning half life in data set [8] of roughly 6.5 h. For the same compound, the IC50 in data set [3] amounted to 29 ± 1.3 nM.

For the compound `CC(=O)O[C@H]1C(=O)[C@@]2(C)[C@H]([C@H](OC(=O)c3ccccc3)[C@]3(O)C[C@H](OC(=O)[C@H](OC(=O)COCC(=O)O[C@H]4CC[C@@]5(C)C(=CC[C@H]6[C@@H]7CC[C@H]([C@H](C)CCCC(C)C)[C@@]7(C)CC[C@@H]65)C4)[C@@H](NC(=O)c4ccccc4)c4ccccc4)C(C)=C1C3(C)C)[C@]1(OC(C)=O)CO[C@@H]1C[C@@H]2O` [Prodrug 8, 2′-O-(5″-O-cholesteryldiglycoloyl)-paclitaxel], the Diameter in data set [5] (setting [9]) is on record as 23 nm. Moreover, in data set [6] (setting [10]), the “ΔZave 150 mM saline” value was 42 nm, the “ΔZave 300 mM sucrose” value stood at 41 nm and the ΔZave water came out at 47 nm. The IC50 in data set [2] stood at 24.1 ± 0.6 nM. Also, in data set [8], the partitioning half life entry was “approximately 21 h”. The IC50 in data set [3] was 27 ± 1.1 nM.

Turning to `CCCCCCCCCCCCCC(=O)OC[C@H](COC(=O)COCC(=O)O[C@@H](C(=O)O[C@H]1C[C@@]2(O)[C@@H](OC(=O)c3ccccc3)[C@@H]3[C@]4(OC(C)=O)CO[C@@H]4C[C@H](O)[C@@]3(C)C(=O)[C@H](OC(C)=O)C(=C1C)C2(C)C)[C@@H](NC(=O)c1ccccc1)c1ccccc1)OC(=O)CCCCCCCCCCCCC` [Prodrug 9, 2′-O-(5″-O-(1′″,2′″-dimyristoyl-sn-glycero)diglycoloyl)-paclitaxel], the Diameter in data set [5] (setting [9]) worked out at 23 nm. For the same compound, in data set [6] (setting [10]), the “ΔZave 150 mM saline” value is 171 nm, the “ΔZave 300 mM sucrose” value was determined as 0 nm and the ΔZave water is 167 nm. Besides, the IC50 in data set [2] is 32.2 ± 1.3 nM. The compound also registered a partitioning half life in data set [8] of 8.5 h. Besides, the IC50 in data set [3] was found to be 34.7 ± 1.3 nM.
